Experimental data from patent US4740233A, “Substituted 1,2,4-triazolo[1,5-a]-pyrimidine-2-sulfonamides and compositions and methods of controlling undesired vegetation and suppressing the nitrification of ammonium nitrogen in soil” (The Dow Chemical Company, priority 1986, dated 1988).

Experiments:
[1] = test system: velvetleaf; assay: Postemergent control of plant species; assay type: in vivo, Abutilon theophrasti; settings: Abutilon theophrasti, post-emergence, 336 h, read-out: percent postemergent control
Procedure: (§1) In representative operations, each compound to be utilized in a series of tests is dissolved in acetone to one-half of the final volume (twice the final concentration) to be used and the acetone solution in each case is admixed with an equal volume of water containing 0.1 percent by weight of surface active material. The compositions, generally in the nature of an emulsion, were employed to spray separate respective plant species which had been grown to a 2-4 leaf stage in soil of good nutrient content in a greenhouse. The various beds were positioned side by side and exposed to substantially identical conditions of temperature and light. Each bed was maintained so as to prevent any interaction with test compounds in different seed beds. Other plants were left untreated to serve as controls. After treatment, the plants were maintained for about two weeks under greenhouse conditions conducive for good plant growth and watered as necessary. Control refers to the reduction in growth compared to the observed results of the same untreated species.

[2] = test system: sorghum; assay: Postemergent control of plant species; assay type: in vivo, Sorghum vulgare; settings: Sorghum, post-emergence, 336 h, read-out: percent postemergent control
Procedure: as §1

[3] = test system: soybean; assay: Postemergent control of plant species; assay type: in vivo, Glycine max.; settings: Glycine max, post-emergence, 336 h, read-out: percent postemergent control
Procedure: as §1

[4] = test system: pigweed; assay: Postemergent control of plant species; assay type: in vivo, Amaranthus spp.; settings: Amaranthus retroflexus, post-emergence, 336 h, read-out: percent postemergent control
Procedure: as §1

[5] = test system: rape; assay: Postemergent control of plant species; assay type: in vivo, Brassica napus; settings: Brassica napus, post-emergence, 336 h, read-out: percent postemergent control
Procedure: as §1

[6] = test system: annual morning glory; assay: Postemergent control of plant species; assay type: in vivo, Ipomoea spp.; settings: Ipomoea, post-emergence, 336 h, read-out: percent postemergent control
Procedure: as §1

[7] = test system: cocklebur; assay: Postemergent control of plant species; assay type: in vivo, Xanthium spp.; settings: Xanthium strumarium, post-emergence, 336 h, read-out: percent postemergent control
Procedure: as §1

[8] = test system: yellow nutsedge; assay: Postemergent control of plant species; assay type: in vivo, Cyperus esculentus; settings: Cyperus, post-emergence, 336 h, read-out: percent postemergent control
Procedure: as §1

[9] = test system: barnyardgrass; assay: Postemergent control of plant species; assay type: in vivo, Echinochloa crusgalli; settings: Echinochloa crus-galli, post-emergence, 336 h, read-out: percent postemergent control
Procedure: as §1

[10] = test system: cotton; assay: Postemergent control of plant species; assay type: in vivo, Gossypium spp.; settings: Gossypium hirsutum, post-emergence, 336 h, read-out: percent postemergent control
Procedure: as §1

[11] = test system: wild oats; assay: Postemergent control of plant species; assay type: in vivo, Avena fatua; settings: Avena fatua, post-emergence, 336 h, read-out: percent postemergent control
Procedure: as §1

[12] = test system: crabgrass; assay: Postemergent control of plant species; assay type: in vivo, Digitaria spp.; settings: Digitaria sanguinalis, post-emergence, 336 h, read-out: percent postemergent control
Procedure: as §1

[13] = test system: sugar beet; assay: Postemergent control of plant species; assay type: in vivo, Beta saccharifera; settings: Beta vulgaris, post-emergence, 336 h, read-out: percent postemergent control
Procedure: as §1

[14] = test system: johnson grass; assay: Postemergent control of plant species; assay type: in vivo, Sorghum halepense; settings: Sorghum halepense, post-emergence, 336 h, read-out: percent postemergent control
Procedure: as §1

[15] = test system: corn; assay: Postemergent control of plant species; assay type: in vivo, Zea mays; settings: Zea mays, post-emergence, 336 h, read-out: percent postemergent control
Procedure: as §1

[16] = test system: nitrification of ammonium nitrogen; assay: Suppression of nitrification of ammonium nitrogen in soil; settings: 27° C.
Procedure, shortened: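 Soil (20 g) moistened to its 1/3 bar tension value, mixed with test chemical and incubated sealed for two weeks at 27° C. Nitrate extracted with ammonium sulfate solution and measured by nitrate-specific ion electrode; value given as % NH4-N remaining.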

[17] = test system: yellow foxtail; assay: Postemergent control of plant species; assay type: in vivo, Setaria lutescens; settings: Setaria, post-emergence, 336 h, read-out: percent postemergent control
Procedure: as §1

[18] = test system: rice; assay: Postemergent control of plant species; assay type: in vivo, Oryza sativa; settings: Oryza sativa, post-emergence, 336 h, read-out: percent postemergent control
Procedure: as §1

[19] = test system: jimsonweed; assay: Postemergent control of plant species; assay type: in vivo, Datura stramonium; settings: Datura stramonium, post-emergence, 336 h, read-out: percent postemergent control
Procedure: as §1

[20] = test system: barnyardgrass; assay: Control of aquatic plant species (paddy water); assay type: in vivo, Echinochloa crusgalli; settings: Echinochloa crus-galli, 216 h, nine days, read-out: Percent control; for pest or weed control at 31 g/ha: 0.031 Kg/Ha; for pest or weed control at 500 g/ha: 0.5 Kg/Ha
Procedure: (§2) In testing for such utility, the plant species to be tested were transplanted into 16 oz. containers into about 2 inches of soil when they were in the 1-2 inch stage and then flooded to a depth of about 1 inch. An acetone concentrate of the chemical to be tested was then injected into the paddy water, the volume injected being varied as desired to provide the desired concentration. Percent control was evaluated nine days after application.

[21] = test system: rice; assay: Control of aquatic plant species (paddy water); assay type: in vivo, Oryza sativa; settings: Oryza sativa, 216 h, nine days, read-out: Percent control; for pest or weed control at 31 g/ha: 0.031 Kg/Ha; for pest or weed control at 500 g/ha: 0.5 Kg/Ha
Procedure: as §2

[22] = test system: yellow nutsedge; assay: Control of aquatic plant species (paddy water); assay type: in vivo, Cyperus esculentus; settings: Cyperus, 216 h, nine days, read-out: Percent control; for pest or weed control at 31 g/ha: 0.031 Kg/Ha; for pest or weed control at 500 g/ha: 0.5 Kg/Ha
Procedure: as §2

[23] = test system: sprangletop; assay: Control of aquatic plant species (paddy water); assay type: in vivo, Leptochloa filiformis; settings: Leptochloa filiformis, 216 h, nine days, read-out: Percent control; for pest or weed control at 31 g/ha: 0.031 Kg/Ha; for pest or weed control at 500 g/ha: 0.5 Kg/Ha
Procedure: as §2

[24] = test system: wheat; assay: Postemergent control of plant species; assay type: in vivo, Triticum aestivum; settings: Triticum aestivum, post-emergence, 336 h, read-out: percent postemergent control
Procedure: as §1

SMILES	pest or weed control at 500 ppm [1]	plant injury at 500 ppm [2]	plant injury at 500 ppm [3]	plant injury at 500 ppm [5]	pest or weed control at 500 ppm [6]	pest or weed control at 500 ppm [7]	pest or weed control at 500 ppm [8]	pest or weed control at 500 ppm [9]	pest or weed control at 500 ppm [11]	pest or weed control at 500 ppm [12]	plant injury at 500 ppm [13]	pest or weed control at 500 ppm [14]	plant injury at 500 ppm [15]	% NH4-N Remaining After 2 Weeks Incubation ([16]; 0.01 ppm)	% NH4-N Remaining After 2 Weeks Incubation ([16]; 0.1 ppm)	% NH4-N Remaining After 2 Weeks Incubation ([16]; 1 ppm)	% NH4-N Remaining After 2 Weeks Incubation ([16]; 10 ppm)	pest or weed control at 500 ppm [17]	plant injury at 500 ppm [18]	pest or weed control at 500 ppm [19]	other results
Cc1cc(C)n2nc(S(=O)(=O)Nc3c(Cl)cc(Cl)cc3Cl)nc2n1 [Compound 35, 5,7-dimethyl-N-(2,4,6-trichlorophynyl)-1,2,4-trizaolo[1,5-a]pyrimidine-2-sulfonamide]	0%	20%	70%	70%	40%	95%	0%	0%	0%	0%	80%	0%	0%	0%	3%	50%	78%	0%	0%	30%	pest or weed control at 500 ppm [4]: 90%; plant injury at 500 ppm [10]: 0%
Cc1cc(C)n2nc(S(=O)(=O)Nc3c(Br)cccc3Br)nc2n1 [Compound 38]														46%	68%	84%	94%				pest or weed control at 31 g/ha [20]: 80%; pest or weed control at 250 g/ha ([20]; 0.25 Kg/Ha): 99%; pest or weed control at 31 g/ha [21]: 0%; pest or weed control at 250 g/ha ([21]; 0.25 Kg/Ha): 97%; pest or weed control at 31 g/ha [22]: 95%; pest or weed control at 250 g/ha ([22]; 0.25 Kg/Ha): 97%; pest or weed control at 31 g/ha [23]: 0%; pest or weed control at 250 g/ha ([23]; 0.25 Kg/Ha): 85%
Cc1cc(C)n2nc(S(=O)(=O)Nc3ccccc3S(C)(=O)=O)nc2n1 [Compound 45]	50%	0%	60%	70%	10%	25%	0%	0%	0%	0%	70%	0%	0%	0%	3%	45%	94%	0%	50%	0%	plant injury at 500 ppm [24]: 0%; plant injury at 500 ppm [10]: 0%
Cc1ccc(NS(=O)(=O)c2nc3nc(C)cc(C)n3n2)c(Cl)c1 [Compound 48]	40%	0%	55%	75%	60%	70%	0%	0%	0%	0%	70%	0%	0%	0%	3%	56%	93%	0%	0%	30%	plant injury at 500 ppm [24]: 0%; plant injury at 500 ppm [10]: 10%
Cc1cc(C)n2nc(S(=O)(=O)Nc3c(C)cccc3[N+](=O)[O-])nc2n1 [Compound 49]														42%	77%	90%	99%				pest or weed control at 16 g/ha ([20]; 0.016 Kg/Ha): 50%; pest or weed control at 500 g/ha [20]: 97%; pest or weed control at 16 g/ha ([21]; 0.016 Kg/Ha): 0%; pest or weed control at 500 g/ha [21]: 97%; pest or weed control at 16 g/ha ([22]; 0.016 Kg/Ha): 95%; pest or weed control at 500 g/ha [22]: 99%; pest or weed control at 16 g/ha ([23]; 0.016 Kg/Ha): 0%; pest or weed control at 500 g/ha [23]: 97%
Cc1cc(C)n2nc(S(=O)(=O)Nc3c(Cl)cccc3I)nc2n1 [Compound 53]														47%	71%	85%	93%				pest or weed control at 31 g/ha [20]: 80%; pest or weed control at 500 g/ha [20]: 99%; pest or weed control at 31 g/ha [21]: 0%; pest or weed control at 500 g/ha [21]: 99%; pest or weed control at 31 g/ha [22]: 95%; pest or weed control at 500 g/ha [22]: 99%; pest or weed control at 31 g/ha [23]: 10%; pest or weed control at 500 g/ha [23]: 97%
Cc1cc(C)n2nc(S(=O)(=O)Nc3c(F)cccc3Cl)nc2n1 [Compound 54]																66%					pest or weed control at 500 g/ha [20]: 97%; pest or weed control at 500 g/ha [21]: 97%; pest or weed control at 500 g/ha [22]: 95%; pest or weed control at 500 g/ha [23]: 0%; % NH4-N Remaining After 2 Weeks Incubation ([16]; 0.06 ppm): 20%; % NH4-N Remaining After 2 Weeks Incubation ([16]; 0.25 ppm): 51%; % NH4-N Remaining After 2 Weeks Incubation ([16]; 4 ppm): 76%
Cc1ccn2nc(S(=O)(=O)N(C(=O)N(C)C)c3c(Cl)cccc3Cl)nc2n1 [Compound 273]	50%	40%	40%	100%	80%	40%	40%	20%	0%	100%	100%	30%	0%					75%	20%	100%	plant injury at 500 ppm [24]: 0%; pest or weed control at 500 ppm [4]: 100%
